Laboratory results taken from US10899738B2 (THE REGENTS OF THE UNIVERSITY OF MICHIGAN, priority 2016, dated 2021).

Biological target: menin protein (Homo sapiens (Human), UniProt O00255)
Assay: biochemical
Type: binding
Conditions: FP competitive binding; menin protein 4 nM, FAM-MM2 probe 2 nM
Method in brief: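 Competitive fluorescence polarization assay using FAM-labelled MLL1 peptide probe FAM-MM2 (2 nM final) preincubated with menin (4 nM final) in PBS with 0.02% bovine γ-globulin, 4% DMSO and 0.01% Triton X-100. Compounds were added and incubated 30 min at room temperature. IC50 came from nonlinear regression of competition curves, with Ki also derived.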

Sequence of menin protein (O00255 whole entry): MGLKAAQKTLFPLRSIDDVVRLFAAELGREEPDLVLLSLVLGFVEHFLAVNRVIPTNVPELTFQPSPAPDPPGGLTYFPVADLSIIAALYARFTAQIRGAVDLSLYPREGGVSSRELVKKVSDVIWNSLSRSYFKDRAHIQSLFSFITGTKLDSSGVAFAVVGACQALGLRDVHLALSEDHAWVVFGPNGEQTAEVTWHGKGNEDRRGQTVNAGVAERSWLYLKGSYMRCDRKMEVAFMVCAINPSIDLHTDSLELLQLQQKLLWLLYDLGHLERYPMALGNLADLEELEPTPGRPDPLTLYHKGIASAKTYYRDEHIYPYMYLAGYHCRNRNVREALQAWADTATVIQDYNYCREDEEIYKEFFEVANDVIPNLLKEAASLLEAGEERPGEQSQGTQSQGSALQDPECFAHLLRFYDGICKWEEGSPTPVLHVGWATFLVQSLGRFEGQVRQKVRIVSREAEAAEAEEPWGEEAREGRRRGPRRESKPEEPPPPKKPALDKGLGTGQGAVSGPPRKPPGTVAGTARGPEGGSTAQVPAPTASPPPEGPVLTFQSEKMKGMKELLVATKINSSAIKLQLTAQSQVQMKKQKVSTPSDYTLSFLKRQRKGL

| Menin Binding Affinity IC50 (μM) | Structure (SMILES) |
| --- | --- |
| No inhibition | O=S(=O)(c1ccc(-n2ccc(CN3CCC(C4(C5CCCC5)NCCc5c(F)cccc54)CC3)c2)cc1)C1CC1 (centres unmarked) [compound 123, 1-cyclopentyl-1-(1-((1-(4-(cyclopropylsulfonyl)phenyl)-1H-pyrrol-3-yl)methyl)piperidin-4-yl)-5-fluoro-1,2,3,4-tetrahydroisoquinoline] |
| No inhibition | C[C@H](NC(=O)O[C@@H]1CCC[C@H]1[C@@](C#N)(c1ccccc1)C1CCN(CC2CN(c3ccc(S(=O)(=O)c4ccncc4)cc3)C2)CC1)c1ccccc1 [compound 218, (1R,2S)-2-((R)-cyano(phenyl)(1-((1-(4-(pyridin-4-ylsulfonyl)phenyl)azetidin-3-yl)methyl)piperidin-4-yl)methyl)cyclopentyl ((S)-1-phenylethyl)carbamate] |

Same assay, conditions: FP competitive binding; menin protein 4 nM, FAM-MM2 probe 2 nM; read-out: Menin Binding Affinity IC50

| Structure (SMILES) | IC50 [µM] |
| --- | --- |
| N#Cc1ccc(OC2CC(N3CCC(C4(C5CCCC5)NCCc5ccccc54)CC3)C2)cc1 (single isomer, unassigned) [compound 130, 4-((1s,3s)-3-(4-(1-cyclopentyl-1,2,3,4-tetrahydroisoquinolin-1-yl)piperidin-1-yl)cyclobutoxy)benzonitrile] | 10.6 |
| N#Cc1ccc(OCCCN2CCC(C3(CC4CCCCC4)NCCc4ccccc43)CC2)cc1 (centres unmarked) [compound 251, 4-(3-(4-(1-(cyclohexylmethyl)-1,2,3,4-tetrahydroisoquinolin-1-yl)piperidin-1-yl)propoxy)benzonitrile] | 7.1 |
| O=C(CN1CCC(C2(C3CCCC3)NCCc3ccccc32)CC1)N1CCCC1 (centres unmarked) [compound 74, 2-(4-(1-cyclopentyl-1,2,3,4-tetrahydroisoquinolin-1-yl)piperidin-1-yl)-1-(pyrrolidin-1-yl)ethan-1-one] | 3.1 |
| N#Cc1ccc(OCCCCN2CC(C3(C4CCCC4)NCCc4ccccc43)C2)cc1 (centres unmarked) [compound 62, 4-(4-(3-(1-cyclopentyl-1,2,3,4-tetrahydroisoquinolin-1-yl)azetidin-1-yl)butoxy)benzonitrile] | 36.2 |
| COC(=O)[C@@H]1CCC[C@H]1C(C#N)(c1ccccc1)C1CCN(CC2CN(c3ccc(S(=O)(=O)C4CC4)cc3)C2)CC1 (mixture of isomers) [compound 333, methyl rac-(1R,2R)-2-(cyano(1-((1-(4-(cyclopropylsulfonyl)phenyl)azetidin-3-yl)(phenyl)methyl)cyclopentane-1-carboxylate] | 5.1 |
| N#CC(c1ccccc1)(C1CCN(CC2CN(c3ccc(S(=O)(=O)c4ccncc4)cc3)C2)CC1)[C@H]1CCC[C@@H]1CO (mixture of isomers) [compound 258, rac-2-((1S,2S)-2-(hydroxymethyl)cyclopentyl)-2-phenyl-2-(1-((1-(4-(pyridin-4-ylsulfonyl)phenyl)azetidin-3-yl)methyl)piperidin-4-yl)acetonitrile] | 0.563 |
| CCNC(=O)O[C@H]1CCC[C@@H]1C(C#N)(c1ccccc1)C1CCN(CC2CN(c3ccc(S(=O)(=O)c4ccncc4)cc3)C2)CC1 (mixture of isomers) [compound 213, rac-(1S,2R)-2-(cyano(phenyl)(1-((1-(4-(pyridin-4-ylsulfonyl)phenyl)azetidin-3-yl)methyl)piperidin-4-yl)methyl)cyclopentyl ethylcarbamate] | 0.17 |
| N#CC(c1ccccc1)(C1CCN(CC2CN(c3ccc(S(=O)(=O)c4ccncc4)cc3)C2)CC1)[C@H]1CCC[C@@H]1CCO (mixture of isomers) [compound 342, rac-2-((1S,2R)-2-(2-hydroxyethyl)cyclopentyl)-2-phenyl-2-(1-((1-(4-(pyridin-4-ylsulfonyl)phenyl)azetidin-3-yl)methyl)piperidin-4-yl)acetonitrile] | 0.897 |
| O=S(=O)(c1ccncc1)c1ccc(N2CC(CN3CCC(C4(C5CCCC5)CN(CC5CC5)Cc5ccccc54)CC3)C2)cc1 (centres unmarked) [compound 50, 4-cyclopentyl-2-(cyclopropylmethyl)-4-(1-((1-(4-(pyridin-4-ylsulfonyl)phenyl)azetidin-3-yl)methyl)piperidin-4-yl)-1,2,3,4-tetrahydroisoquinoline] | 0.007 |
| CCN1Cc2ccccc2C(C2CCCC2)(C2CCN(CC3CN(c4ccc(S(=O)(=O)c5ccnc(C)c5)cc4)C3)CC2)C1 (centres unmarked) [compound 154, 4-cyclopentyl-2-ethyl-4-(1-((1-(4-((2-methylpyridin-4-yl)sulfonyl)phenyl)azetidin-3-yl)methyl)piperidin-4-yl)-1,2,3,4-tetrahydroisoquinoline] | 0.006 |
| CC(=O)O[C@@H]1CCC[C@H]1C(C#N)(c1cccc(F)c1)C1CCN(CC2CN(c3ccc(CC(F)(F)F)cc3)C2)CC1 (mixture of isomers) [compound 420, rac-(1R,2S)-2-(cyano(3-fluorophenyl)(1-((1-(4-(2,2,2-trifluoroethyl)phenyl)azetidin-3-yl)methyl)piperidin-4-yl)methyl)cyclopentyl acetate] | 11.6 |
| CNC(=O)O[C@H]1CCC[C@@H]1C(Cn1ccnc1)(c1ccccc1)C1CCN(CC2CN(c3ccc(S(=O)(=O)C4COC4)cc3)C2)CC1 (mixture of isomers) [compound 412, rac-(1S,2R)-2-(2-(1H-imidazol-1-yl)-1-(1-((1-(4-(oxetan-3-ylsulfonyl)phenyl)azetidin-3-yl)methyl)piperidin-4-yl)-1-phenylethyl)cyclopentyl methylcarbamate] | 0.004 |
| CC(=O)N[C@@H]1CCC[C@H]1C(C#N)(c1ccccc1)C1CCN(CC2CN(c3ccc(S(=O)(=O)C4CC4)cc3)C2)CC1 (mixture of isomers) [compound 282, rac-N-((1R,2S)-2-(cyano(1-((1-(4-(cyclopropylsulfonyl)phenyl)azetidin-3-yl)methyl)piperidin-4-yl)(phenyl)methyl)cyclopentyl) acetamide] | 3.3 |
| CN1Cc2ccccc2C(c2ccccn2)(C2CCN(CC3CN(c4ccc(S(C)(=O)=O)cc4)C3)CC2)C1 (centres unmarked) [compound 170, 2-methyl-4-(1-((1-(4-(methylsulfonyl)phenyl)azetidin-3-yl)methyl)piperidin-4-yl)-4-(pyridin-2-yl)-1,2,3,4-tetrahydroisoquinoline] | 47.6 |
| CNC(=O)O[C@H]1CCC[C@@H]1C(Cn1ccnc1)(c1ccccc1)C1CCN(C(=O)CCCc2ccc(C#N)cc2)CC1 (mixture of isomers) [compound 380, rac-(1S,2R)-2-(1-(1-(4-(4-cyanophenyl)butanoyl)piperidin-4-yl)-2-(1H-imidazol-1-yl)-1-phenylethyl)cyclopentyl methylcarbamate] | 0.798 |
| CC(=O)O[C@@H]1CCC[C@H]1C(C#N)(c1cccc(F)c1)C1CCN(CC2CN(c3ccc(S(=O)(=O)c4ccccc4)cc3)C2)CC1 (mixture of isomers) [compound 313, rac-(1R,2S)-2-(cyano(3-fluorophenyl)(1-((1-(4-(phenylsulfonyl)phenyl)azetidin-3-yl)methyl)piperidin-4-yl)methyl)cyclopentyl acetate] | 13.8 |
| CC(C)C(=O)N1CCCCC1C1(C2CCN(CCCOc3ccc(C#N)cc3)CC2)CN(C)Cc2ccccc21 (centres unmarked) [compound 299, 4-(3-(4-(4-(1-isobutyrylpiperidin-2-yl)-2-methyl-1,2,3,4-tetrahydroisoquinolin-4-yl)piperidin-1-yl)propoxy)benzonitrile] | 16.8 |
| C[C@H](NC(=O)O[C@H]1CCC[C@@H]1[C@](C#N)(c1ccccc1)C1CCN(CC2CN(c3ccc(S(=O)(=O)c4ccncc4)cc3)C2)CC1)c1ccccc1 [compound 217, (1S,2R)-2-((S)-cyano(phenyl)(1-((1-(4-(pyridin-4-ylsulfonyl)phenyl)azetidin-3-yl)methyl)piperidin-4-yl)methyl)cyclopentyl ((S)-1-phenylethyl)carbamate] | 11.6 |
